Entries after “also recorded” stand apart in the source; their conditions may differ.
Assays:
[1] = molecular target: T1, IDE (insulin degrading enzyme) (Mus musculus, UniProt Q9JHR7); assay: pre-treatment with IDE inhibitor followed by amylin challenge, serum Aβ; type: in vivo; conditions: Tg2576 mice pre-treated with 1-10 phenonthrolin, then amylin challenge
T1 construct: endogenous in cells; host or cells: Tg2576 (APP transgenic) mice, whole animal, i.p. dosing
T1 sequence (Q9JHR7 1-1019): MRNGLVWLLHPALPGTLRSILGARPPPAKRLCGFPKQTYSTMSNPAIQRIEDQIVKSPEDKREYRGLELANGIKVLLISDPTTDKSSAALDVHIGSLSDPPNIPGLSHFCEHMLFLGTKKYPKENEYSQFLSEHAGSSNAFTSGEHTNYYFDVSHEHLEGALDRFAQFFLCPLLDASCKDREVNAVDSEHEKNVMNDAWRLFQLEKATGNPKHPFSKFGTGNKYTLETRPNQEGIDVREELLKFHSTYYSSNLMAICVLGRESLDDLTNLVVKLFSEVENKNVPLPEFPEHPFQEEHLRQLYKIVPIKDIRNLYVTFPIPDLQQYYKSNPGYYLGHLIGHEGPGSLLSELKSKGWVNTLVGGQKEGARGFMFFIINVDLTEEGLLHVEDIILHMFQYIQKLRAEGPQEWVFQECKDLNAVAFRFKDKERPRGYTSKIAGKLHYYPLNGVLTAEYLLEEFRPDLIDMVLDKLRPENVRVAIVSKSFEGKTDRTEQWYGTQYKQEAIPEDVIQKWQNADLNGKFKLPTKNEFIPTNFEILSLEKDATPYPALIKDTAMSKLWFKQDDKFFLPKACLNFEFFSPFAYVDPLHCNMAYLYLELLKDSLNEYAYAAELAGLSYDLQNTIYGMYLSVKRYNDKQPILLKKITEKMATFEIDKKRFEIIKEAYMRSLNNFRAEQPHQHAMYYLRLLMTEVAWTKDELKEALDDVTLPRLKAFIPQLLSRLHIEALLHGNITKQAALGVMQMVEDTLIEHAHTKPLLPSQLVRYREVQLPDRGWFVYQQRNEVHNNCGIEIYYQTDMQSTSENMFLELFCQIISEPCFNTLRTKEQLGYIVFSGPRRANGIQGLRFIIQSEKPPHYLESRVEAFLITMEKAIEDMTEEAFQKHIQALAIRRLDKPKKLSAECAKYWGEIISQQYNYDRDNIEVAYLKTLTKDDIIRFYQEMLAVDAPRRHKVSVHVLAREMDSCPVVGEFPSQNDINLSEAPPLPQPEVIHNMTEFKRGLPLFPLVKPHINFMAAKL
Experimental: Tg2576 mice were used for the amylin challenge test. The mice received blood draws before any treatment. Then the mice had intraperitoneally injection (i.p) of PBS, AC253 (amylin receptor antagonist) or 1,10-phenonthrolin (IDE inhibitor) and received another blood draw 24 hrs post the treatment followed by i.p amylin (20 mg/kg). The final blood draw was conducted after 24 hrs post i.p amylin. Serum Aβ1-40 (5A) and Aβ1-42 (5B) were measured by using the ELISA assays. The levels of serum Aβ1-40 and Aβ1-42 at pre-injection of amylin were treated as 1 s, and the relative fold increases with different treatments were calculated and compared with the pre-injection level by using two-way ANOVA. P values for statistical significance are shown.
As amylin and Aβ are degraded by the same protease, IDE, we next pre-treated the Tg2576 mice with 1-10 phenonthrolin, a metalloprotease inhibitor to inhibit the activity of IDE, followed by the amylin challenge. It was next tested whether CTR/RAMP3 and IDE form a complex in this process to regulate Aβ in the brain. […] Another experiment with IDE immunoprecipitation and then RAMP3 western blot also illustrated the complex.

[2] = test system: plasma Aβ1-40 and Aβ1-42; assay: pramlintide challenge in two human subjects, plasma Aβ1-40 and Aβ1-42; type: in vivo; conditions: pramlintide 60 mcg s.c.
Experimental: (§1) Subcutaneous injections of one dose of pramlintide (60 mcg) was performed in two subjects followed in the research registry of the BU ADC, one control and one probable Alzheimer's disease. Blood was drawn to collect plasma samples before the injection and at 5, 30, 60 and 180 minutes after the injection. Vital signs and blood glucose were monitored at these time points and prior to discharge of the subject from the facility. One hour after the injection, the subjects were offered a standard meal. Plasma Aβ1-40 and Aβ1-42 were measured (Table 2). […] The human results provided herein are encouraging, in part, because the dose of pramlintide (60 mcg) used was only moderate.

[3] = blood (stick) glucose monitored after pramlintide injection in two human subjects; type: in vivo; conditions: pramlintide 60 mcg s.c.
Experimental: as §1

[4] = test system: mouse models; assay: daily dosing in mouse models, memory functions; type: in vivo, mice

SMILES: c1cnc2c(c1)ccc1cccnc12 [1-10 phenonthrolin, 1,10-phenonthrolin]
- surges of serum Aβ at 24 hrs post the peripheral injection of amylin [1]: completely blocked

SMILES: CC[C@H](C)[C@H](NC(=O)[C@@H]1CCCN1C(=O)CNC(=O)[C@H](Cc1ccccc1)NC(=O)[C@H](CC(N)=O)NC(=O)[C@H](CC(N)=O)NC(=O)[C@H](CO)NC(=O)[C@H](CO)NC(=O)[C@H](Cc1c[nH]cn1)NC(=O)[C@@H](NC(=O)[C@H](CC(C)C)NC(=O)[C@H](Cc1ccccc1)NC(=O)[C@H](CC(N)=O)NC(=O)[C@H](C)NC(=O)[C@H](CC(C)C)NC(=O)[C@H](CCCNC(=N)N)NC(=O)[C@H](CCC(N)=O)NC(=O)[C@@H](NC(=O)[C@H](C)NC(=O)[C@@H]1CSSC[C@H](NC(=O)[C@@H](N)CCCCN)C(=O)N[C@@H](CC(N)=O)C(=O)N[C@@H]([C@@H](C)O)C(=O)N[C@@H](C)C(=O)N[C@@H]([C@@H](C)O)C(=O)N1)[C@@H](C)O)C(C)C)C(=O)N[C@@H](CC(C)C)C(=O)N1CCC[C@H]1C(=O)N1CCC[C@H]1C(=O)N[C@H](C(=O)N[C@@H](CC(N)=O)C(=O)N[C@H](C(=O)NCC(=O)N[C@@H](CO)C(=O)N[C@@H](CC(N)=O)C(=O)N[C@H](C(=O)N[C@@H](Cc1ccc(O)cc1)C(N)=O)[C@@H](C)O)C(C)C)[C@@H](C)O [pramlintide]
- plasma Aβ1-42 ([2]; AD subject, post 5', pre-injection 27.0): 29.0 pg/mL
- plasma Aβ1-40 ([2]; AD subject, post 5', pre-injection 180.6): 160.8 pg/mL
- plasma Aβ1-42 ([2]; AD subject, post 30', pre-injection 27.0): 31.8 pg/mL
- plasma Aβ1-40 ([2]; AD subject, post 30', pre-injection 180.6): 161.0 pg/mL
- plasma Aβ1-42 ([2]; AD subject, post 60', pre-injection 27.0): 26.6 pg/mL
- plasma Aβ1-40 ([2]; AD subject, post 60', pre-injection 180.6): 129.4 pg/mL
- plasma Aβ1-42 ([2]; AD subject, post 180', pre-injection 27.0): 22.0 pg/mL
- plasma Aβ1-40 ([2]; AD subject, post 180', pre-injection 180.6): 104.6 pg/mL
- plasma Aβ1-42 ([2]; control subject, post 5', pre-injection 29.9): 26.0 pg/mL
- plasma Aβ1-40 ([2]; control subject, post 5', pre-injection 148.4): 178.4 pg/mL
- plasma Aβ1-42 ([2]; control subject, post 30', pre-injection 29.9): 27.5 pg/mL
- plasma Aβ1-40 ([2]; control subject, post 30', pre-injection 148.4): 150.4 pg/mL
- plasma Aβ1-42 ([2]; control subject, post 60', pre-injection 29.9): 21.7 pg/mL
- plasma Aβ1-40 ([2]; control subject, post 60', pre-injection 148.4): 110.5 pg/mL
- plasma Aβ1-42 ([2]; control subject, post 180', pre-injection 29.9): 10.6 pg/mL
- plasma Aβ1-40 ([2]; control subject, post 180', pre-injection 148.4): 100.8 pg/mL
- Glucose ([3]; AD subject, post 5', pre-injection 85): 91 mg/dL
- Glucose ([3]; AD subject, post 30', pre-injection 85): 88 mg/dL
- Glucose ([3]; AD subject, post 60', pre-injection 85, standard meal offered one hour after injection): 135 mg/dL
- Glucose ([3]; AD subject, post 180', pre-injection 85, standard meal offered one hour after injection): 115 mg/dL
- Glucose ([3]; control subject, post 5', pre-injection 115): 108 mg/dL
- Glucose ([3]; control subject, post 30', pre-injection 115): 115 mg/dL
- Glucose ([3]; control subject, post 60', pre-injection 115, standard meal offered one hour after injection): 114 mg/dL
- Glucose ([3]; control subject, post 180', pre-injection 115, standard meal offered one hour after injection): 149 mg/dL
- memory functions / cognition [4]: increased memory functions; also recorded: led to cognitive improvements

Source: US9814761B2, “Compositions, methods and assays comprising amylin or amlyin analogs for abeta-peptide mediated disorders” (TRUSTEES OF BOSTON UNIVERSITY, priority 2012, dated 2017)
